Legend:
KMP-11 [1] = target: T1, KMP-11 (Leishmania donovani, UniProt Q36736); assay: DiI C-18 fluorescence quenching, Hill fit; type: binding
T1 sequence (Q36736 1-92): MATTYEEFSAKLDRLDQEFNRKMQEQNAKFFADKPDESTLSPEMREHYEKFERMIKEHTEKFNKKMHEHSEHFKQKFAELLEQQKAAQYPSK

KMP-11 [2] = target: KMP-11 (Leishmania donovani, UniProt Q36736, Y89W); assay: biochemical
KMP-11 [3] = target: KMP-11 (Leishmania donovani, UniProt Q36736, Y48W); assay: biochemical
KMP-11 [4] = target: KMP-11 (Leishmania donovani, UniProt Q36736, F62W); assay: biochemical
KMP-11 [5] = target: KMP-11 (Leishmania donovani, UniProt Q36736, Y5W); assay: biochemical

## CCCCCCCCCCCCCCCC(=O)OC[C@H](COP(=O)([O-])OCC[N+](C)(C)C)OC(=O)CCCCCCCCCCCCCCC [DPPC]
KMP-11 [1]
  Kd: 286 nM
KMP-11 [2]
  Kd: 161 nM
KMP-11 [3]
  Kd: 118 nM
KMP-11 [4]
  Kd: 3800 nM
KMP-11 [5]
  Kd: 19.4 nM
